Laboratory results as given in patent US20060025406A1, “Modulators of hepatocyte growth factor/c- Met activity” (Angion Biomedica Corporation, priority 2004, published 2006).

Experiments:
HUVEC cells = test: HGF/SF-induced HUVEC cell proliferation ([3H]-thymidine incorporation); type: cell-based, human; settings: HGF/SF 25 ng/ml, overnight, FIG. 1A
Experimental: Compounds of the invention were tested for HGF/SF inhibitory activity in HGF/SF-induced HUVEC cell proliferation in vitro. Briefly, HUVEC cells were seeded into 48-well plates and serum starved for 2 hours in medium containing 1% BSA, and then treated with test compounds in multiple concentrations in the presence or absence of HGF/SF (25 ng/ml, R&D Systems) overnight. This experiment also included negative (vehicle alone) and positive (HGF/SF alone) controls. Cell proliferation was measured by the incorporation of [^3H]-thymidine and counted using Beta scintillation counter.

[1] = tested on: A549 human lung carcinoma cells; test: A549 subcutaneous xenograft; type: in vivo, Balb C nude mice; settings: 5 mg/kg i.p. daily for 3 weeks
Experimental: To investigate the effect of c-Met antagonist compound A on inhibiting the growth of A549 human lung carcinoma cells in vivo, 2×10^6 cells of A549 were injected subcutaneously into the right hind flank of male Balb C nude mice. Tumors were allowed to develop for 12 days and then animals were treated with compound A at 5 mg/kg i.p. daily for 3 weeks. Tumor size measurements were made twice weekly and volumes calculated ((length×width^2)/2 (mm^3)) Final weight of excised tumors was measured at the end of the 3-week treatment period (0.78 g for control vs. 0.05 g for compound A treated).

[2] = tested on: A549 human lung carcinoma cells; test: MTT assay, cell viability; type: cell-based; settings: 72 hours continuous exposure
Experimental: To investigate the effect of c-Met antagonist compound A on inhibiting the growth of A549 human lung carcinoma cells in vitro, an MTT assay was carried out to determine cell viability. Cells were plated in 96-well plates at 5000 cells/well in complete medium, in the absence of drug. After 24 hours to allow for cell attachment, cells were incubated for 72 hours with the tested compounds (5 different concentrations) or vehicle. Cells were then exposed to MTT for 4 hours, and absorbance was measured at a wavelength of […].

SMILES	inhibition of HGF/SF stimulation of endothelial cell proliferation (HUVEC cells)	tumor volume and weight [1]	final weight of excised tumors ([1]; control 0.78 g)	IC50 [2]
CC(C)=CC1C(CNc2nc(Nc3ccccc3C(C)C)c3ccccc3n2)C1(C)C (centres unmarked) [B]	inhibited HGF/SF stimulation of endothelial cell proliferation	–	–	–
OCc1ccccc1Sc1ccccc1CNc1nc(NC2CCCC2)c2ccccc2n1 [compound A]	inhibited HGF/SF stimulation of endothelial cell proliferation	significantly reduced tumor volume and weight	0.05 g	2900 nM
